Measurements: patent publication US7425640B2, “Substituted 5-carboxyamide pyrazoles and [1,2,4]triazoles as antiviral agents” (priority 2004, dated 2008)
Like-named read-outs stand apart in the source and are kept apart here.

Target: HCV RNA-dependent RNA polymerase NS5B (Δ21) (Hepatitis C virus genotype 1b, UniProt P26663)
Experiment: Assay for HCV RNA-dependent RNA polymerase activity (SPA, [3H]-GTP incorporation)
Assay type: biochemical
Details: 50 nM NS5B (Δ21), class symbols
Summary of the method: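 NS5B (Δ21), 50 nM, was incubated 3 h at room temperature with biotinylated oligoG12/polyC template, 5 μM GTP plus [3H]-GTP, in HEPES pH 7.3 with MgCl2 and NaCl. [3H]-GTP incorporation was read by streptavidin SPA. IC50 came from single experiments across 11 two-fold dilutions (0.05–50 μM).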

[1] = read-out: Δ21 Activity (IC50 μM)

HCV RNA-dependent RNA polymerase NS5B (Δ21), sequence (P26663 2420-2989, stated change not applied): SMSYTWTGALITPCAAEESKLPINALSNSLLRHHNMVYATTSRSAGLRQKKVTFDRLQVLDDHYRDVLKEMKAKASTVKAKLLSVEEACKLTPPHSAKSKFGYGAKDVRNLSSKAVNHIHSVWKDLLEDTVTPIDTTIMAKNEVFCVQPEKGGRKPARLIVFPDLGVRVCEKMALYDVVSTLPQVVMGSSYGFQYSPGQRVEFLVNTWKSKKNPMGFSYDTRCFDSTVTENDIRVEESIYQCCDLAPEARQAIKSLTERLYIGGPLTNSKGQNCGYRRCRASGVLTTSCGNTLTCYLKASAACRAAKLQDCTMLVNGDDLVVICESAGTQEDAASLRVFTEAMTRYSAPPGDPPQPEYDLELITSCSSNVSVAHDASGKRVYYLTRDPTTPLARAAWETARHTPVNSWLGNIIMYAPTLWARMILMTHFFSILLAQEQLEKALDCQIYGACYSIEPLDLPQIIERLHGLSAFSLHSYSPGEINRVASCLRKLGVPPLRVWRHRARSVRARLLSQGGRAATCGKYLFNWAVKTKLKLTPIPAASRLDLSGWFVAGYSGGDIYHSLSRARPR

Compound | IC50 (Δ21 Activity (IC50 μM)) | IC50 [1]
O=C(Cn1nc(C(=O)NCCc2ccccn2)cc1C(=O)N[C@H]1CCCC[C@@H]1OCc1ccccc1)N[C@H]1CCCC[C@@H]1OCc1ccccc1 [Compound 176] | > 1 µM | –
CC(=O)c1cc(C(=O)N[C@H]2CCCC[C@@H]2OCc2ccccc2)n(CC(=O)N[C@H]2CCCC[C@@H]2OCc2ccccc2)n1 [Compound 126] | – | 0.1 to 1 µM
O=Cc1cc(C(=O)N[C@H]2CCCC[C@@H]2OCc2ccccc2)n(CC(=O)N[C@H]2CCCC[C@@H]2OCc2ccccc2)n1 [Compound 189] | > 1 µM | –
O=C(O)CNC(=O)c1cc(C(=O)N[C@H]2CCCC[C@@H]2OCc2ccccc2)n(CC(=O)N[C@H]2CCCC[C@@H]2OCc2ccccc2)n1 [Compound 153] | – | 0.1 to 1 µM
O=C(Cn1nc(C(=O)N2CCN(c3ccccc3)CC2)cc1C(=O)N[C@H]1CCCC[C@@H]1OCc1ccccc1)N[C@H]1CCCC[C@@H]1OCc1ccccc1 [Compound 140] | – | 0.1 to 1 µM
COC(=O)CCCCCNC(=O)CCCCCNC(=O)c1cc(C(=O)N[C@H]2CCCC[C@@H]2OCc2ccccc2)n(CC(=O)N[C@H]2CCCC[C@@H]2OCc2ccccc2)n1 [Compound 184] | > 1 µM | –
Cc1ccc(OCC2CCCC2)c(NC(=O)Cn2nc(C(=O)O)cc2C(=O)N[C@H]2CCCC[C@@H]2OCc2ccccc2)c1 [Compound 34] | 0.05 to 0.1 µM | –
O=C(Cn1nc(NS(=O)(=O)c2cc(Cl)ccc2Cl)cc1C(=O)N[C@H]1CCCC[C@@H]1OCc1ccccc1)N[C@H]1CCCC[C@@H]1OCc1ccccc1 [Compound 96] | – | 0.1 to 1 µM
